Test results reported in patent publication US9518022B2, “Anti-HIV compounds” (priority 2014, dated 2016).
Read-outs that look alike come from different tables or passages of the source.

Assay: Cytotoxicity assay (AlamarBlue) in mock infected MT-2 cells
Format: cell-based
Conditions: human
Method: The present assay was used to screen candidate antiviral compounds by quantification of virus spread and production over several rounds of infection in vitro. MT-2, a HIV-1 permissive human T-cell line, was seeded in microtiter plates and was simultaneously treated with serially diluted compound and inoculated with a HIV-1 NL4-3 viral clone engineered to express Renilla luciferase in place of Nef. Following treatment, the culture was incubated for 96 hours. After the incubation, media was collected and used to estimate relative infectivity on the indicator cell line, TZM-bl. Additionally, viral spread was quantified by measuring luciferase activity via a commercially available luciferase substrate. In parallel, MT-2 cells were seeded and inoculated with mock virus in the presence of serially diluted compound. Compound toxicity was quantified 96 hours after treatment with AlamarBlue.
MT-2 (NIH Aids reagent program 237) cells were grown and maintained in an incubator at 37° C. with 5% CO2 using a basal medium of RPMI-1640 supplemented with 10% FBS. Cells were seeded in 100 μl at 2×10^4 cells/well in white walled 96-well microtiter plates. Candidate compounds were 3-fold serially diluted in the appropriate solvent. Solvent without compound was used as a no drug reference. Cells were inoculated at a multiplicity of 0.027 with an HIV-1 NL4-3 virus stock engineered to express Renilla luciferase in place of Nef. Diluted virus stock was first added to serially diluted compound. Compound and virus were delivered to cells in an equal volume (100 μl) and treated cultures were returned to the incubator for 96 hours. In parallel, plates for cytotoxicity estimates were prepared in the same way except cells were plated in clear walled 96-well microtiter plates and were mock infected.
At 96 hours post treatment, 20 μl AlamarBlue proliferation reagent was added to 200 μl treated and mock infected cultures and incubated for 3 hours at 37° C. with 5% CO2 then read at 545, 590 nm on fluorescence plate reader (Biotek).
For all assays, data was imported into Accelrys Assay Explorer 3.3. In Assay Explorer, % inhibition (antiviral or cytotoxicity) was calculated using the solvent control as a reference by the following equation: 1−(SignalCompound/SignalReference). The % Inhibition and compound concentration data was fitted using the following 4-parameter logistic model (Assay Explorer model 42):
[formula] where X is compound concentration, Y is % inhibition, D is the maximum % Inhibition (constrained to 100%), C is IC50 value or inflection point, B is the hill slope, and A is the minimum % inhibition (constrained to 0%). The IC50 value is reported as the EC50 or CC50 depending on the assay endpoint. EC50 represents the effective concentration at which virus replication is inhibited by 50 percent. CC50 represents the concentration that results in the death of 50 percent of the host cells. The selectivity or therapeutic index (SI or TI), is the ratio of CC50 over EC50 and represents the relative effectiveness in inhibiting viral replication compared to inducing cell death.

[1] = mock infected MT-2 cells, 96 hours, AlamarBlue, read-out: CC50

SMILES | CC50 at 96 h | CC50 at 96 h [1]
COc1cc(C)c(/C=C/C2NCCc3cc(OCc4ccccc4)c(OC)cc32)cc1OCc1ccccc1 (centres unmarked) [AF, 6-benzyloxy-1-[(E)-2-(5-benzyloxy-4-methoxy-2-methyl-phenyl)vinyl]-7-methoxy-1,2,3,4-tetrahydroisoquinoline] | 3.87 µM | 
COc1cc2c(cc1OCc1ccccc1)CCNC2/C=C/c1cc(OC)c(OCc2ccccc2)c(OC)c1 (centres unmarked) [AP, 6-(benzyloxy)-1-[(E)-2-[4-(benzyloxy)-3,5-dimethoxyphenyl]ethenyl]-7-methoxy-1,2,3,4-tetrahydroisoquinoline] |  | 1.64 µM
COc1cc(OC)c(OC)cc1/C=C/C1NCCc2cc(OCc3ccccc3)c(OC)cc21 (centres unmarked) [AQ, 6-(benzyloxy)-7-methoxy-1-[(E)-2-(2,4,5-trimethoxyphenyl)ethenyl]-1,2,3,4-tetrahydroisoquinoline] |  | 1.98 µM
COc1ccc(/C=C/C2NCCc3cc(OCc4ccccc4)c(OC)cc32)cc1Br (centres unmarked) [AR, 6-(benzyloxy)-1-[(E)-2-(3-bromo-4-methoxyphenyl)ethenyl]-7-methoxy-1,2,3,4-tetrahydroisoquinoline] |  | 6.2 µM
COc1cc(/C=C/C2NCCc3cc(OCc4ccccc4)c(OC)cc32)cc(OC)c1 (centres unmarked) [AT, 6-(benzyloxy)-1-[(E)-2-(3,5-dimethoxyphenyl)ethenyl]-7-methoxy-1,2,3,4-tetrahydroisoquinoline] | 4.85 µM | 
COc1cc(/C=C/C2NCCc3cc(OCc4ccccc4)c(OC)cc32)ccn1 (centres unmarked) [AU, 6-benzyloxy-7-methoxy-1-[(E)-2-(2-methoxy-4-pyridyl)vinyl]-1,2,3,4-tetrahydroisoquinoline] |  | 3.22 µM
COc1ccc(/C=C/C2NCCc3cc(OCc4ccccc4)c(OC)cc32)c(OC)c1 (centres unmarked) [AV, 6-(benzyloxy)-1-[(E)-2-(2,4-dimethoxyphenyl)ethenyl]-7-methoxy-1,2,3,4-tetrahydroisoquinoline] | 5.5 µM | 
COc1cc2c(cc1OCc1ccccc1)CCNC2/C=C/c1ccncc1 (centres unmarked) [AW, 6-(benzyloxy)-7-methoxy-1-[(E)-2-(pyridin-4-yl)ethenyl]-1,2,3,4-tetrahydroisoquinoline] |  | 11.4 µM
COc1ccc(/C=C/C2NCCc3cc(OCc4ccccc4)c(OC)cc32)cn1 (centres unmarked) [AX, 6-benzyloxy-7-methoxy-1-[(E)-2-(6-methoxy-3-pyridyl)vinyl]-1,2,3,4-tetrahydroisoquinoline] |  | 11.4 µM
COc1cc2c(cc1OCc1ccccc1)CCNC2c1cc(OCc2ccccc2)c(OC)cc1C (centres unmarked) [AY, 6-(benzyloxy)-1-[5-(benzyloxy)-4-methoxy-2-methylphenyl]-7-methoxy-1,2,3,4-tetrahydroisoquinoline] | 5.14 µM | 
COc1cc2c(cc1OCc1ccccc1)CCNC2c1ccccc1CNC(=O)OC(C)(C)C (centres unmarked) [AZ, tert-butyl N-({2-[6-(benzyloxy)-7-methoxy-1,2,3,4-tetrahydroisoquinolin-1-yl]phenyl}methyl)carbamate] | 9.48 µM | 
COc1cc(C)c(/C=C/C2NCCc3cc(OCc4ccccc4)c(OC)cc32)c(C)c1 (centres unmarked) [BA, 6-(benzyloxy)-7-methoxy-1-[(E)-2-(4-methoxy-2,6-dimethylphenyl)ethenyl]-1,2,3,4-tetrahydroisoquinoline] | 3.33 µM | 
COc1cc2c(cc1OCc1ccccc1)CCNC2/C=C/c1cc2c(cc1C)OCO2 (centres unmarked) [BB, 6-(benzyloxy)-7-methoxy-1-[(E)-2-(6-methyl-2H-1,3-benzodioxol-5-yl)ethenyl]-1,2,3,4-tetrahydroisoquinoline] | 2.98 µM | 
COc1cc2c(cc1OCc1ccccc1)CCNC2/C=C/c1cc2c(cc1C)OCCO2 (centres unmarked) [BC, 6-(benzyloxy)-7-methoxy-1-[(E)-2-(7-methyl-2,3-dihydro-1,4-benzodioxin-6-yl)ethenyl]-1,2,3,4-tetrahydroisoquinoline] | 2.43 µM | 
CCCCOc1ccc(/C=C/C2NCCc3cc(OCc4ccccc4)c(OC)cc32)cc1OC (centres unmarked) [BD, 6-(benzyloxy)-1-[(E)-2-(4-butoxy-3-methoxyphenyl)ethenyl]-7-methoxy-1,2,3,4-tetrahydroisoquinoline] | 3.62 µM | 
CCCCOc1cc(/C=C/C2NCCc3cc(OCc4ccccc4)c(OC)cc32)ccc1OC (centres unmarked) [BE, 6-(benzyloxy)-1-[(E)-2-(3-butoxy-4-methoxyphenyl)ethenyl]-7-methoxy-1,2,3,4-tetrahydroisoquinoline] | 3.75 µM | 

SMILES | CC50 at 96 h | CC50 at 96 h [1]
COc1ccc(/C=C/C2NCCc3cc(OCc4ccccc4)c(OC)cc32)cc1F (centres unmarked) [BF, 6-(benzyloxy)-1-[(E)-2-(3-fluoro-4-methoxyphenyl)ethenyl]-7-methoxy-1,2,3,4-tetrahydroisoquinoline] | 33.5 µM | 
COc1cc2c(cc1OCc1ccccc1)CCNC2/C=C/c1ccc(N(C)C)cc1C (centres unmarked) [BG, 4-[(E)-2-[6-(benzyloxy)-7-methoxy-1,2,3,4-tetrahydroisoquinolin-1-yl]ethenyl]-N,N,3-trimethylaniline] | 4.44 µM | 
COc1cc2c(cc1OCc1ccccc1)CCNC2/C=C/c1cc(OC(F)(F)F)ccc1C (centres unmarked) [BH, 6-(benzyloxy)-7-methoxy-1-[(E)-2-[2-methyl-5-(trifluoromethoxy)phenyl]ethenyl]-1,2,3,4-tetrahydroisoquinoline] | 5.3 µM | 
COc1cc2c(cc1OCc1ccccc1)CCNC2/C=C/c1ccccc1 (centres unmarked) [BI, 6-(benzyloxy)-7-methoxy-1-[(E)-2-phenylethenyl]-1,2,3,4-tetrahydroisoquinoline] | 10 µM | 
COc1ccc(/C=C/C2NCCc3cc(OCc4ccccc4)c(OC)cc32)cc1 (centres unmarked) [BJ, 6-(benzyloxy)-7-methoxy-1-[(E)-2-(4-methoxyphenyl)ethenyl]-1,2,3,4-tetrahydroisoquinoline] | 20.9 µM | 
COc1cc2c(cc1OCc1ccccc1)CCNC2/C=C/c1cccc(OCc2ccccc2)c1 (centres unmarked) [BK, 6-(benzyloxy)-1-[(E)-2-[3-(benzyloxy)phenyl]ethenyl]-7-methoxy-1,2,3,4-tetrahydroisoquinoline] | 4 µM | 
CCCCOc1cc(/C=C/C2NCCc3cc(OCc4ccccc4)c(OC)cc32)c(C)cc1OC (centres unmarked) [BL, 6-(benzyloxy)-1-[(E)-2-(5-butoxy-4-methoxy-2-methylphenyl)ethenyl]-7-methoxy-1,2,3,4-tetrahydroisoquinoline] | 1.1 µM | 
COc1cc2c(cc1OCc1ccccc1)CCNC2/C=C/c1ccc2c(c1)CCO2 (centres unmarked) [BM, 6-(benzyloxy)-1-[(E)-2-(2,3-dihydro-1-benzofuran-5-yl)ethenyl]-7-methoxy-1,2,3,4-tetrahydroisoquinoline] | 20.4 µM | 
COc1cc2c(cc1OCc1ccccc1)CCNC2/C=C/c1ccc2occc2c1 (centres unmarked) [BN, 1-[(E)-2-(1-benzofuran-5-yl)ethenyl]-6-(benzyloxy)-7-methoxy-1,2,3,4-tetrahydroisoquinoline] | 20.7 µM | 
COc1cc(C)c(/C=C/C2NCCc3cc(OCc4ccccc4)c(OC)cc32)cc1OCCCC(=O)O (centres unmarked) [BO, 4-{5-[(E)-2-[6-(benzyloxy)-7-methoxy-1,2,3,4-tetrahydroisoquinolin-1-yl]ethenyl]-2-methoxy-4-methylphenoxy}butanoic acid] | 8.96 µM | 
COc1cc(F)c(/C=C/C2NCCc3cc(OCc4ccccc4)c(OC)cc32)cc1OC (centres unmarked) [BP, 6-(benzyloxy)-1-[(E)-2-(2-fluoro-4,5-dimethoxyphenyl)ethenyl]-7-methoxy-1,2,3,4-tetrahydroisoquinoline] | 5.61 µM | 
COc1ccc(/C=C/C2NCCc3cc(OCc4ccccc4)c(OC)cc32)cc1OC (centres unmarked) [BQ, 6-(benzyloxy)-1-[(E)-2-(3,4-dimethoxyphenyl)ethenyl]-7-methoxy-1,2,3,4-tetrahydroisoquinoline] | 8.7 µM | 
COc1ccc(/C=C/C2NCCc3cc(OCc4ccccc4)c(OC)cc32)c(F)c1 (centres unmarked) [BR, 6-(benzyloxy)-1-[(E)-2-(2-fluoro-4-methoxyphenyl)ethenyl]-7-methoxy-1,2,3,4-tetrahydroisoquinoline] | 10 µM | 
COc1cc2c(cc1OCc1ccccc1)CCNC2/C=C/c1sccc1C (centres unmarked) [BS, 6-(benzyloxy)-7-methoxy-1-[(E)-2-(3-methylthiophen-2-yl)ethenyl]-1,2,3,4-tetrahydroisoquinoline] | 11.3 µM | 
COc1cc(F)c(/C=C/C2NCCc3cc(OCc4ccccc4)c(OC)cc32)c(F)c1 (centres unmarked) [BU, 6-(benzyloxy)-1-[(E)-2-(2,6-difluoro-4-methoxyphenyl)ethenyl]-7-methoxy-1,2,3,4-tetrahydroisoquinoline] | 10.6 µM | 
COc1cc(C)c(/C=C/C2NCCc3cc(OCc4ccccc4)c(OC)cc32)cc1C (centres unmarked) [BV, 6-(benzyloxy)-7-methoxy-1-[(E)-2-(4-methoxy-2,5-dimethylphenyl)ethenyl]-1,2,3,4-tetrahydroisoquinoline] | 2.63 µM | 
